Legend:
[1] = test system: HUVEC; test: Antiproliferative activity against HUVEC after 72 hrs by AlamarBlue assay; conditions: Homo sapiens
[2] = Antiangiogenic activity in human PC3 cells assessed as reduction in VEGF levels at […] +/- […] uM after 72 hrs by ELISA relative to control; format: functional, PC-3; parameters: scale not given: the % may be the effect or the level left
[3] = Antiangiogenic activity in human PC3 cells assessed as reduction in leptin levels at […] +/- […] uM after 72 hrs by ELISA relative to control; format: functional, PC-3; parameters: scale not given: the % may be the effect or the level left
[4] = Antiangiogenic activity in human PC3 cells assessed as reduction in TNF-alpha levels at […] +/- […] uM after 72 hrs by ELISA relative to control; format: functional, PC-3; parameters: scale not given: the % may be the effect or the level left
[5] = Antiangiogenic activity in human PC3 cells assessed as reduction in TGF-beta levels at […] +/- […] uM after 72 hrs by ELISA relative to control; format: functional, PC-3; parameters: scale not given: the % may be the effect or the level left
[6] = Antiangiogenic activity in human PC3 cells assessed as reduction in FGF-beta levels at […] +/- […] uM after 72 hrs by ELISA relative to control; format: functional, PC-3; parameters: scale not given: the % may be the effect or the level left
[7] = Antiangiogenic activity in human PC3 cells assessed as reduction in EGF levels at […] +/- […] uM after 72 hrs by ELISA relative to control; format: functional, PC-3; parameters: scale not given: the % may be the effect or the level left
[8] = Solubility of the compound; format: physicochemical
[9] = Antiangiogenic activity in human PC3 cells assessed as reduction in IGF-1 levels at […] +/- […] uM after 72 hrs by ELISA relative to control; format: functional, PC-3; parameters: scale not given: the % may be the effect or the level left
[10] = test system: SN12C; test: Growth inhibition of human SN12C cells after 48 hrs by SRB assay; format: functional
[11] = test system: MDA-MB-231; test: Growth inhibition of human MDA-MB-231 cells after 48 hrs by SRB assay; format: functional; conditions: MDA-MB-231, 48 h
[12] = Growth inhibition of human UO31 cells after 48 hrs by SRB assay; format: functional; conditions: UO-31, 48 h
[13] = test system: NCI-H322M; test: Growth inhibition of human NCI-H322M cells after 48 hrs by SRB assay; format: functional
[14] = test system: Malme-3M; test: Growth inhibition of human MALME-3M cells after 48 hrs by SRB assay; format: functional
[15] = test system: ACHN; test: Growth inhibition of human ACHN cells after 48 hrs by SRB assay; format: functional
[16] = test system: SK-MEL-28; test: Growth inhibition of human SK-MEL-28 cells after 48 hrs by SRB assay; format: functional; conditions: SK-MEL-28, 48 h, read-out: LC50 (the source's name)
[17] = Growth inhibition of human UACC62 cells after 48 hrs by SRB assay; format: functional; conditions: UACC-62, 48 h
[18] = Growth inhibition of human OVCAR5 cells after 48 hrs by SRB assay; format: functional; conditions: OVCAR-5, 48 h
[19] = read-out: LC50 (the source's name)

Q: For `NS(=O)(=O)c1ccc(Nc2nccc(Nc3ccc4[nH]ncc4c3)n2)cc1`, which IC50 [1] is on record?
A: 1.37 µM

Q: And the Activity [2]?
A: 37.6%

Q: And the Activity [3]?
A: 24.5%

Q: And the Activity [4]?
A: 36%

Q: And the Activity [5]?
A: 32.2%

Q: What about the Activity [6] of the same molecule?
A: 28.4%

Q: And the Activity [7]?
A: 34.6%

Q: And the solubility [8]?
A: Insoluble

Q: What about the Activity [9] of the same molecule?
A: 39.5%

Q: For `COc1ccc(Nc2nccc(Nc3ccc4[nH]ncc4c3)n2)cc1`, which GI50 [10] is on record?
A: 3.92 µM

Q: And the TGI [10]?
A: > 100 µM

Q: What about the CC50 [10, 19] of the same molecule?
A: > 100 µM

Q: And the GI50 [11]?
A: 2.69 µM

Q: And the TGI [11]?
A: 5.36 µM

Q: What about the CC50 [11, 19] of the same molecule?
A: > 100 µM

Q: And the GI50 [12]?
A: 2.12 µM

Q: What about the TGI [12] of the same molecule?
A: 11.4 µM

Q: And the CC50 [12, 19]?
A: 33.8 µM

Q: What about the GI50 [13] of the same molecule?
A: 4.48 µM

Q: What about the TGI [13] of the same molecule?
A: 38.2 µM

Q: And the CC50 [13, 19]?
A: > 100 µM

Q: What about the GI50 [14] of the same molecule?
A: 3.27 µM

Q: And the TGI [14]?
A: 15.9 µM

Q: And the CC50 [14, 19]?
A: > 100 µM

Q: And the GI50 [15]?
A: 2.89 µM

Q: And the TGI [15]?
A: 11.7 µM

Q: What about the CC50 [15, 19] of the same molecule?
A: 45 µM

Q: And the CC50 [16]?
A: > 100 µM

Q: And the GI50 [17]?
A: 1.93 µM

Q: And the TGI [17]?
A: 16.9 µM

Q: And the CC50 [17, 19]?
A: > 100 µM

Q: And the GI50 [18]?
A: 3.33 µM

Q: What about the TGI [18] of the same molecule?
A: > 100 µM

Q: And the CC50 [18, 19]?
A: > 100 µM

Source: ChEMBL document CHEMBL3817755, “Design, synthesis and biological evaluation of indazolepyrimidine based derivatives as anticancer agents with anti-angiogenic and antiproliferative activities” (Medchemcomm, 2016)
